Experimental findings from patent publication US20250084372A1, “IN VITRO DERIVATION OF GONADAL SOMATIC CELLS” (Conception Bisosciences, Inc., priority 2020, published 2025) are described below.

Assay [1] deals with second intermediate cell population (LHX1, PAX2, WT1, RUNX1). Nature of the assay: Intermediate mesoderm marker expression in second intermediate cell population. Format: cell-based, human. The following applies: increasing concentration; for expression of intermediate mesoderm markers WT1 and RUNX1: CHIR 0.5, 1 or 2 μM, RA or TTNPB 0, 0.1, 0.5 or 1 μM. The procedure:
The cell suspension was centrifuged at 1200 RPM for 5 min and the supernatant was discarded. The centrifuged cells were resuspended in 1 ml of GK2 medium and the cells were counted. […] The plates were cultured for 24 hours, and then 80% of the media was replaced with fresh IM-induction media without the ROCK inhibitor. 80% of the media was again replaced every other day until the cells became confluent (about 5-6 days). Once the cells were confluent, the cells were passaged to fresh fibronectin-coated 24-well plates, with at least 50,000 cells per well after passage (25k/cm^2).

The subject of assay [2] is ovarian somatic cells (OSCs). The experiment in a line: RA concentration and exposure gradient during OSC induction, FOXL2 and KRT19 staining. The following applies: 10-step gradient 0 μM to 10 μM.
Assay [3] concerns second intermediate cell population. Nature of the assay: Induction of second intermediate (IM) cell population: survival and morphology, phase contrast. The format is cell-based, human. The conditions noted are these: 5 days in IM-induction media, increasing concentration. The procedure: The cell suspension was centrifuged at 1200 RPM for 5 min and the supernatant was discarded. The centrifuged cells were resuspended in 1 ml of GK2 medium and the cells were counted. About 720,000 cells (from 24 well plate: 30,000 cells per well) were added to 12 mL IM-induction medium (as prepared in Table 10, but without the ROCK inhibitor). 12 μL ROCK inhibitor Y-27632 (1000×) or 36 μL of CET (3:1000) (final concentration of CET in media: 50 nM Chroman1, 5 μM Emricasan, 0.7 μM Trans-ISRIB) was added to obtain 60,000 cells/mL. 500 μL of the solution was placed in each well of fibronectin coated 24-well plate (about 30,000 cells/well). The plates were cultured for 24 hours, and then 80% of the media was replaced with fresh IM-induction media without the ROCK inhibitor. 80% of the media was again replaced every other day until the cells became confluent (about 5-6 days). Once the cells were confluent, the cells were passaged to fresh fibronectin-coated 24-well plates, with at least 50,000 cells per well after passage (25k/cm^2). About 4-5 million second intermediate cells were produced per 24 well plate. […]

The next assay relates to OSCs. Here is the method: To assay whether the gonadal somatic cells (such as the ovarian somatic cells—OSCs) generated from pluripotent stem cells are functional, expression of CYP19A1 was assayed by qPCR, and steroidogenesis was measured by ELISA for estradiol.
A first intermediate cell population expressing markers representative of mesoderm, and a second intermediate cell population expressing markers representative of intermediate mesoderm, and the OSCs were generated according to the protocols described in Example 6.

In assay [4] the test system is ovarian somatic cells (OSCs). Nature of the assay: Concentration titration of BMP4, follistatin and FGF2 in OSC induction, qPCR for GATA4 and FOXL2. The format is cell-based, human. The conditions noted are these: BMP4 20 ng/mL, follistatin removed. The procedure:
Various concentration titrations of BMP4, Follistatin and FGF were tested in OSC induction, and the resulting cells were examined for expression of bipotential gonadal markers as well as that of granulosa markers.
The OSCs were induced based on the protocols described in Example 6, but with various concentrations of BMP4. Follistatin and FGF tested.
The OSC induction conditions were first tested by varying the BMP4 concentration. […] The gene expression of resulting cells was tested by qPCR for bi-potential gonadal cell markers (GATA4) as well as for granulosa cell markers (FOXL2) (FIGS. 12A and 12B respectively). Expression of GATA4 increased with higher BMP4 concentration, and FOXL2 expression appeared to peak at 10 ng/ml of BMP4 under the conditions tested.
Four different concentrations of follistatin were then tested in OSC induction, with the concentration of BMP4 kept constant at 20 ng/ml as previously described. The gene expression of resulting cells was tested by qPCR for bi-potential gonadal cell markers (GATA4) as well as for granulosa cell markers (FOXL2) (FIGS. 12C and 12D respectively). […] The generation of mature OSCs were also examined by FOXL2 expression. […] In subsequent experiments, OSC induction in the absence or at lower concentrations of follistatin was further explored. […]

Assay [5] has as its system ovarian somatic cells (OSCs). Nature of the assay: OSC induction with different FGF family members, marker expression. Format: cell-based, human. The following applies: 10 ng/mL FGF in granulosa double medium. Here is the method: Fibroblast growth factors (FGFs) are a large family of proteins that are important for signaling events in a wide variety of processes. […] Briefly, gonadal cells were induced in granulosa doublemedium comprising different FGFs, and the expression of bipotential gonadal markers as well as that of granulosa markers were measured in the resulting cells.
The replated cells from the second intermediate population were incubated in the granulosa double medium (also referred to as gonadal induction medium or OSC induction medium) according to Table 18, with the same concentration of either FGF2, 9, 10, 16, 17, 18 or 19. The expression of bipotential gonadal markers (WT1, LHX9, GADD45G and GATA4) as well as granulosa markers (FOXL2, NR1H4 and KITLG) were measured in the resulting cells.

Regarding `Cc1c[nH]c(-c2cnc(NCCNc3ccc(C#N)cn3)nc2-c2ccc(Cl)cc2Cl)n1` [CHIR, CHIR99021], the “expression of intermediate mesoderm markers WT1 and RUNX1” value in assay [1] is reported as “increased expression”. Moreover, the “expression of intermediate mesoderm markers LHX1 and PAX2” value in assay [1] (CHIR 1, 2 or 3 μM, RA 50 nM, 100 nM, 500 nM or 1 μM) is “increased expression”.
For the molecule `CC1=C(/C=C/C(C)=C/C=C/C(C)=C/C(=O)O)C(C)(C)CCC1` [RA, retinoic acid], the “RA concentration at which KRT19 staining peaked” value in assay [2] is listed as “around 500 nM”.
Turning to `C/C(=C\c1ccc(C(=O)O)cc1)c1ccc2c(c1)C(C)(C)CCC2(C)C` [TTNPB], the “cell survival and cellular morphology of second intermediate cell population” value in assay [3] was “increased cell survival and uniform cellular morphology”. In assay [1], the “expression of intermediate mesoderm markers WT1 and RUNX1” value is on record as “increasing expression”.
Consider `C[C@]12CCC(=O)C[C@@H]1CC[C@@H]1[C@@H]2CC[C@]2(C)[C@@H](O)CC[C@@H]12` [dHT, dihydroxy-testosterone], for which the “estradiol levels in the media, 48 hrs compared to 24-hr incubation” value in the assay on OSCs (50 ng/ml, 48 hrs) is reported as “further increase”. For the same molecule, the “estradiol levels in the media” value in the assay with OSCs (24-hr incubation, higher concentration) is reported as “increased”.
On to FGF2, for which, in assay [4], the “FGF2 concentration at which GATA4 and FOXL2 expression reach saturation” value amounted to 20 ng/mL.
Consider “FGF16: fibroblast growth factor family member”, for which, in assay [5], the “expression of bipotential gonadal markers (WT1, LHX9, GADD45G, GATA4) compared to FGF2” value is reported as “comparable or higher” and the “expression of granulosa markers (FOXL2, NR1H4, KITLG) compared to corresponding medium” value is reported as “comparable”.
Taken in the same sequence, the figures for “FGF19: fibroblast growth factor family member” were “comparable or higher” and “comparable”.
